The record followed here is patent publication US20230015949A1, “NEISSERIA TREATMENT USING CANNABINOIDS” (priority 2019, published 2023).

Usually MIC stands for the lowest concentration that inhibits growth of the organism.

The test system of one series is Neisseria meningitidis. Briefly: Broth microdilution MIC testing (Example 1). The class given is cell-based. The following applies: Neisseria meningitidis, ATCC13090; N. meningitidis MMX 0707 / ATCC 13090; broth microdilution; read-out: MIC. The protocol: (§1) In this study, to evaluate the spectrum of activity, cannabidiol (CBD) was profiled against Neisseria. Testing was conducted following guidelines recommended by the Clinical and Laboratory Standards Institute (CLSI, 1-4), using vancomycin, meropenem, levofloxacin, and gentamicin as comparators for testing aerobic bacteria.
(§2) Test agents were supplied by Micromyx. Stock solutions of all compounds were prepared on the first day of testing at 101× the highest test concentration using solvents recommended by CLSI. CBD was prepared fresh on each of testing.
(§3) The test organisms evaluated in this study consisted of clinical isolates from the Micromyx Repository, reference isolates from the American Type Culture Collection (ATCC; Manassas, Va.), isolates from the antibiotic resistance bank from the Centers for Disease Control and Prevention (CDC; Atlanta, Ga.), and isolates from the Network on Antimicrobial Resistance in Staphylococcus aureus (NARSA; BEI Resources, Manassas, Va.). Upon initial receipt at Micromyx, the organisms were sub-cultured onto an appropriate agar medium. Following incubation, colonies were harvested from these plates and cell suspensions prepared and frozen at −80° C. with a cryoprotectant.
(§4) Prior to testing, Neisseria was streaked onto Chocolate agar (BD; Lot No. 9228071) and incubated at 35° C. in 5% CO2 for 24 hr.
(§5) For Neisseria, a modified medium described by the ATCC as capable of supporting growth was used. This medium contains 15 g Oxoid Special Peptone, 1 g corn starch (Ward's Science; Rochester, N.Y.; Lot 39-3271), 5 g NaCl (VWR; 57897), 4 g K2HPO4 (Sigma; Lot SLBT7061), 1 g KH2PO4 (SLBC1921V), and 1% IsoVitaleX (BD; Lot 8323954) enrichment per 500 mL.
(§6) MIC values were determined using a broth microdilution procedure described by CLSI (1-4). Automated liquid handlers (Multidrop 384, Labsystems, Helsinki, Finland; Biomek 2000 and Biomek FX, Beckman Coulter, Fullerton, Calif.) were used to conduct serial dilutions and liquid transfers.
(§7) To prepare the drug mother plates, which would provide the serial drug dilutions for the replicate daughter plates, the wells of columns 2 through 12 of standard 96-well microdilution plates (Costar 3795) were filled with 150 μl of the designated diluent for each row of drug. The test article and comparator compounds (300 μl at 101× the highest concentration to be tested) were dispensed into the appropriate wells in column 1. The Biomek 2000 was then used to make 2-fold serial dilutions in the mother plates from column 1 through column 11. The wells of column 12 contained no drug and served as the organism growth control wells for the assay.
(§8) The daughter plates were loaded with 190 μL per well of the appropriate test medium for the tested organism using the Multidrop 384. The daughter plates were completed on the Biomek FX instrument which transferred 2 μL of drug solution from each well of a mother plate to the corresponding well of each daughter plate in a single step.
A standardized inoculum of each test organism was prepared per CLSI methods (1-4). The inoculum for each organism was dispensed into sterile reservoirs divided by length (Beckman Coulter), and the Biomek 2000 was used to inoculate the plates. […]
The plates for testing of aerobic organisms were stacked 3 to 4 high, covered with a sterile lid, and incubated at 35° C. and 5% CO2 for the time periods specified in CLSI (1-4). […] The MIC was read and recorded as the lowest concentration of drug that inhibited visible growth of the organism.
For orientation: In broth dilution the organism is exposed to a series of concentrations in liquid medium.

Series [1] in a line: Un-inoculated solubility control plate, drug precipitation. Conditions: Neisseria test medium and CAMHB. The class given is physicochemical.
A further series concerns Neisseria gonorrhoeae. As to the kind of experiment: Broth microdilution MIC testing (Example 1). The class given is cell-based. Conditions: Neisseria gonorrhoeae, broth microdilution, read-out: MIC. The method, then: as §1, §2, §3, §4, §5, §6, §7, §8
A standardized inoculum of each test organism was prepared per CLSI methods (1-4). The inoculum for each organism was dispensed into sterile reservoirs divided by length (Beckman Coulter), and the Biomek 2000 was used to inoculate the plates. Daughter plates were placed on the Biomek 2000 work surface in reverse orientation so that inoculation took place from low to high drug concentration. Plates were inoculated with 10 μL of the inoculum resulting in a final cell density of approximately 5×10^5 CFU/mL per well.
The plates for testing of aerobic organisms were stacked 3 to 4 high, covered with a sterile lid, and incubated at 35° C. and 5% CO2 for the time periods specified in CLSI (1-4). […] Following incubation, the microplates were removed from the incubator and viewed from the bottom using a plate viewer. […] The MIC was read and recorded as the lowest concentration of drug that inhibited visible growth of the organism.

Converted amounts (≈) assume the structure as drawn. Like-named read-outs stand apart in the source and are kept apart here.

Turning to `C=C(C)C1CCC(C)=CC1c1c(O)cc(CCCCC)cc1O` (centres unmarked) [CBD, 2-[3-methyl-6-(1-methylethenyl)-2-cyclohexen-1-yl]-5-pentyl-1,3-benzenediol], the minimal inhibitory concentration (MIC) was 0.25 µg/mL (≈ 0.795 µM) with Neisseria meningitidis; 1 µg/mL (≈ 3.18 µM) with Neisseria gonorrhoeae (ATCC49226, N. gonorrhoeae MMX 0683 / ATCC 49226, plate read at 40 hr); 1 µg/mL (≈ 3.18 µM) in the series on Neisseria gonorrhoeae (N. gonorrhoeae MMX 6746); 2 µg/mL (≈ 6.36 µM) in the series on Neisseria gonorrhoeae (N. gonorrhoeae MMX 6757, plate read at 40 hr). Moreover, the “Concentration at which precipitation was seen” value in series [1] was ≥ 8000 ng/mL.
